pEC50: −log10 of the molar value. Peptide text beside a SMILES is read from it.
Columns and labels:
Clytia MIHR [1] = assay: GPCR deorphanization assay, luminescence response to peptides at 1 μM (CHO-K1 cells, Gα-16, GFP-apoaequorin); assay type: cell-based, Clytia hemisphaerica; conditions: peptide 1E-6M, normalised to Platynereis FLamide receptor + 1 μM AKYFL-NH2, n = 3
Text: We used a cell culture–based GPCR deorphanization assay to identify the MIH receptor from our candidate shortlist. cDNAs for each candidate were transfected into Chinese Hamster ovary K1 (CHO-K1) cells along with the promiscuous Gα protein Gα-16, and an aequorin-GFP luminescence reporter that measures Ca^2+ mobilization downstream of this heterologous Gα protein [27, 28]. We first screened the 16 candidate Clytia GPCRs against a mixture of 33 synthetic amidated peptides (including MIHs) predicted to be generated from previously identified putative Clytia neuropeptide precursors and one additional one identified from transcriptome data. Given our imperfect knowledge of pro-peptide processing in cnidarians, some of the synthetic peptides may not correspond to endogenous peptides. Only one of the 16 GPCRs was activated by this peptide mixture. This receptor responded well to all 4 synthetic Clytia MIH tetrapeptides, as well as to related Cladonema MIH peptides that can also activate Clytia oocyte maturation, but not to other Clytia peptide mixtures or poorly active MIH penta-/tripeptides. We termed this Clytia GPCR the Maturation Inducing Hormone Receptor (MIHR). The activity of individual peptides at 1 μM to stimulate the MIHR closely matched their in vivo ability to induce oocyte maturation (Fig 1B).
(§1) Cell culture GPCR ligand response assays were performed as described. Briefly, CHO-K1 cells were cultured in Ham’s F12 Nut Mix medium (Thermo Fisher Scientific) with 10% foetal bovine serum. Cells were seeded in 96-well plates at approximately 10,000 cells/well and transfected the following day with pcDNA3.1(+) plasmids encoding each of the 16 candidate Clytia GPCRs (S2 Text), the promiscuous Gα-16 protein [65], and a reporter construct GFP-apoaequorin [66] (60 ng each) using the transfection reagent TurboFect (Thermo Fisher Scientific). After 2 days of expression, the medium was removed and replaced with Hank’s balanced salt solution (HBSS) supplemented with 1.8 mM Ca2+, 10 mM glucose, and […] coelenterazine h (Promega, Madison, WI). After incubation at 37 °C for 2 hours, cells were tested by adding synthetic peptides (GenScript) in HBSS supplemented with 1.8 mM Ca2^+ and 10 mM glucose. A list of all synthetic peptides used is provided in S2 Table. Luminescence was recorded for 45 seconds in a plate reader (BioTek Synergy Mx or Synergy H4; BioTek, Winooski, VT). Data were integrated over the 45-second measurement period and recorded as technical triplicates in each case. Data were normalized using the response of Platynereis FLamide receptor to 1 μM AKYFL-NH2 [28]. Dose–response curves were obtained using concentrations between 0.01 nM and 100 μM for each peptide. Data for dose–response curves were recorded in triplicate for each concentration and the experiment was repeated independently 3 times. Dose–response curves were fitted with a four-parameter curve using Prism 6 (GraphPad, La Jolla, CA) and were normalized to the calculated upper plateau values (100% activation).
Supplementary file pbio.3000614.s011.xlsx: S1 Data Numerical data corresponding to Fig 1B. Raw luminescence values obtained in triplicate for each of the neuropeptide combinations tested against the MIHR in the deorphanization assay are provided. In the right-hand table, the raw luminescence values obtained in quadruple for the positive and negative controls are provided. In the lower table, means and standard errors of the mean of the luminescence values obtained for each neuropeptide combination and controls are also shown, as well as the values normalized to the positive control, which were used to prepare the graph shown in Fig 1B. MIHR, MIH receptor. (XLSX) Click here for additional data file.

Clytia MIHR [2] = assay: Dose–response curves of Clytia MIHR, luminescence (CHO-K1 cells, Gα-16, GFP-apoaequorin); assay type: cell-based, Clytia hemisphaerica; set-up: key to Span (best-fit value) / Bottom (best-fit value): % activation, normalized to fitted upper plateau (100%); conditions: for pEC50: four-parameter fit, variable slope, triplicate; for HillSlope / LogEC50: best-fit value; for Bottom / Span / Top: best-fit value (luminescence)
Experimental: The Clytia MIH amidated peptides are produced from two precursor genes Che-pp4 (generating multiple copies of WPRAamide, WPRYamide, and WPRPamide) and Che-pp1 (multiple copies of WPRPamide and RPRGamide).
as §1
Supplementary file pbio.3000614.s012.xlsx: S2 Data Numerical data corresponding to Fig 1C. The first three tabs show statistical values obtained using Prism 6 software (GraphPad, La Jolla, CA) from the raw luminescence values for 3 independent dose–response experiments. The raw luminescence values are shown, as well as the values normalized with respect to the maximum. […] MIH, maturation-inducing hormone. (XLSX) Click here for additional data file.

[3] = log(agonist) vs. response, variable slope (four parameters), fit of third dataset

Which results are given for N=C(N)NCCC[C@H](NC(=O)[C@@H]1CCCN1C(=O)[C@@H](N)CCCNC(=N)N)C(=O)N[C@@H](Cc1ccc(O)cc1)C(N)=O [RPRYa] (H-RPRY-NH2; N-terminus assumed)?
Normalised response (to positive control), mean (Clytia MIHR [1]): 0.39; pEC50 (Clytia MIHR [2]; dataset/experiment 1): 7.24; pEC50 (Clytia MIHR [2]; dataset/experiment 2): 6.79; HillSlope (Clytia MIHR [2]; first dataset): 1.301; LogEC50 (Clytia MIHR [2]; first dataset): -7.239; Bottom (Clytia MIHR [2]; first dataset): 997.1; Span (Clytia MIHR [2]; first dataset): 60319; Top (Clytia MIHR [2]; first dataset): 61316; Bottom (best-fit value) (Clytia MIHR [2]; [3]): 5.512; HillSlope (best-fit value) (Clytia MIHR [2]; [3]): 1.159; LogEC50 (best-fit value) (Clytia MIHR [2]; [3]): -6.887; Span (best-fit value) (Clytia MIHR [2]; [3]): 94.5; HillSlope (Clytia MIHR [2]; second dataset): 1.165; LogEC50 (Clytia MIHR [2]; second dataset): -6.785; Bottom (Clytia MIHR [2]; second dataset): 2011; Span (Clytia MIHR [2]; second dataset): 27358; Top (Clytia MIHR [2]; second dataset): 29369; EC50 / relative activity on MIHR (Clytia MIHR [2]; three independent dose–response experiments): highest activity
